{
  "source": "ChEMBL document CHEMBL1765050",
  "about": "“Cyclopropyl and isopropyl derivatives of 11-cis and 9-cis retinals at C-9 and C-13: subtle steric differences with major effects on ligand efficacy in rhodopsin” (J Nat Prod, 2011)",
  "data": [
    {"molecular_target": "Rhodopsin (Bos taurus) (UniProt P02699)", "sequence (P02699 whole entry)": "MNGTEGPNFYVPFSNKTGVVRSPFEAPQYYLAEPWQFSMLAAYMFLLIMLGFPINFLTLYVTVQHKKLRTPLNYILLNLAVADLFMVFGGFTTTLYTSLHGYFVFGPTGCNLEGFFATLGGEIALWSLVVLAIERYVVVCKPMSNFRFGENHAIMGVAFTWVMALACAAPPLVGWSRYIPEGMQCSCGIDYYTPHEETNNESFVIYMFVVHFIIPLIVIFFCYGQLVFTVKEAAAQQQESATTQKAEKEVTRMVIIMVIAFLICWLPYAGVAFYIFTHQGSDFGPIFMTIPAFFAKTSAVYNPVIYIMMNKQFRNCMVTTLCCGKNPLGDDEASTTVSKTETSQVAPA", "assay": "Agonist activity at bovine rhodopsin assessed as opsin mediated cognate G protein transducer activation by fluorescence assay", "assay_type": "functional", "parameters": "concentration or dose not given beside the values", "units": {"Activity": "%"}, "values": [
      {"compound": "CC1=C(/C=C/C(C)=C\\C=C\\C(=C\\C=O)C(C)C)C(C)(C)CCC1", "Activity": 139},
      {"compound": "CC1=C(/C=C/C(C)=C\\C=C\\C(=C\\C=O)C2CC2)C(C)(C)CCC1", "Activity": 53},
      {"compound": "CC1=C(/C=C/C(C)=C/C=C\\C(C)=C\\C=O)C(C)(C)CCC1", "Activity": 100},
      {"compound": "CC1=C(/C=C/C(C)=C\\C=C\\C(C)=C\\C=O)C(C)(C)CCC1", "Activity": 104},
      {"compound": "CC1=C(/C=C/C(=C\\C=C\\C(C)=C\\C=O)C2CC2)C(C)(C)CCC1", "Activity": 60},
      {"compound": "CC1=C(/C=C/C(=C/C=C\\C(C)=C\\C=O)C2CC2)C(C)(C)CCC1", "Activity": 83}
    ]}
  ]
}
